A short description of test [1]: Dissociation constant against beta adrenergic receptor of turkey erythrocyte membranes.
Test [2] can be described thus: Dissociation constant against beta adrenergic receptor of frog erythrocyte membranes.
Test [3] can be described thus: Dissociation constant against beta adrenergic receptor.

This is an account of results in ChEMBL document CHEMBL1122492, “Synthesis of iodine-125 labeled (+/-)-15-(4-azidobenzyl)carazolol: a potent beta-adrenergic photoaffinity probe” (J Med Chem, 1983).

pKd: −log10 of the molar value.

`CC(C)(Cc1ccc(N=[N+]=[N-])cc1)NCC(O)COc1ccc(I)c2[nH]c3ccccc3c12` (stereo not given): the pKd in test [1] and in test [2] was 10.70 throughout. Take `CC(C)NCC(O)COc1cccc2[nH]c3ccccc3c12` (stereo not given) [CARAZOLOL]: the negative logarithm of the Kd (pKd) – broadly, the negative decadic logarithm of the Kd, by convention in mol/L – in test [3] is 10.00. For the compound `CC(C)(Cc1ccc(N=[N+]=[N-])c(I)c1)NCC(O)COc1cccc2[nH]c3ccccc3c12` (stereo not given), the pKd in test [1] and in test [2] was 10.70 in each case.
